Values of other authors, collected in patent US20250215497A1, “IL-8, IL-6, IL-1 Beta and TET2 and DNMT3A in Atherosclerosis” (The Brigham and Women’s Hospital, Inc., priority 2017, published 2025).

Assays:
IL-6 = details: patients with rheumatoid arthritis, low-dose methotrexate
IL-1β = details: patients with rheumatoid arthritis, low-dose methotrexate (for example from 15 to 20 mg/week)

CN(Cc1cnc2nc(N)nc(N)c2n1)c1ccc(C(=O)N[C@@H](CCC(=O)O)C(=O)O)cc1 [methotrexate]
effect on IL-6 levels (IL-6): improve IL-6 levels | effect on IL-1β levels (IL-1β): improve IL-1β levels
